Assay results as given in patent US20180179524A1, “COMPOSITIONS AND METHODS FOR INHIBITING CELL PROLIFERATION” (President and Fellows of Harvard College, priority 2015, published 2018).

Test system: luciferase-based reporter constructs in S2R+ cells
Assay: Luciferase-based mutation reporter assay (sgRNA mutation efficiency)
Format: cell-based, Drosophila
Conditions: sgRNAs with no mismatches targeting luciferase-based reporter in S2R+ cells; mutation rate = 1/Firefly luciferase normalized to Renilla
Description: The luciferase reporter vector was constructed by PCR amplifying the metallothionein promoter from pMK33 and luciferase gene from pGL3 (Table 1) and combining these with annealed oligos containing a gRNA target site (Table 1 and Table 2) and a custom made cloning vector using Golden Gate assembly.
Luciferase assays were performed by transfecting S2R+ cells with the relevant pl018 plasmid, luciferase reporter and pRL-TK (Promega) (to allow normalization of transfection efficiencies between samples) in 96 well plates using Effectene Transfection Reagent (Qiagen) according to the manufacturer's recommendations. Twenty-four hours after transfection, CuSO4 was added to the cell media at a final concentration of 140 μM and cells were incubated for a further 16 hours.
Firefly and Renilla luciferase readings were taken using the Dual-Glo Luciferase Assay System (Promega) according to manufacturer's instructions and a SpectraMax Paradigm Multi-Mode Microplate Detection Platform (Molecular Devices).
Because the rate of mutations varies widely between different sgRNAs (25-27), whether efficiency could be predicted based on the sgRNA sequence was tested. 75 additional sgRNAs were generated, each targeting luciferase-based reporter constructs with no mismatches and tested mutation efficiency for each. Using this panel of sgRNAs and associated efficiencies, the presence or absence of a correlation between GC content and mutation rate was examined. […] Next, whether a more general sequence-based approach was tested for its ability to improve efficiency prediction. The nucleotide content of all 75 sgRNAs was examined, considering each position separately and generated a probability matrix linking nucleotide content with mutation rate (FIG. 1, panel B). This was then used to generate predicted efficiency scores based on sgRNA sequence. […] Note that sgRNAs targeting close to the 3′ end of genes or with apparent viability effects were not included in this analysis. Finally, predicted scores were generated for all sgRNA target sites in the Drosophila genome and annotated.

Row | Substance | Mean efficiency
1 | AAACAGAAGGTCTTCCCCAA: sgRNA targeting a luciferase-based reporter construct, no mismatches (chemistry not given here) | 0.3046
2 | AAAGAGCTGCGGGCCGGGCG: sgRNA targeting a luciferase-based reporter construct, no mismatches (chemistry not given here) | 0.06954
3 | AACGACATCACGGTCCATGC: sgRNA targeting a luciferase-based reporter construct, no mismatches (chemistry not given here) | 0.2424
4 | AACTCAAAGACCCGCTTTCG: sgRNA targeting a luciferase-based reporter construct, no mismatches (chemistry not given here) | 0.1408
5 | AAGATAAGTTCTCTCCTATT: sgRNA targeting a luciferase-based reporter construct, no mismatches (chemistry not given here) | 0.04594
6 | AAGTAGGCTCTCCTGAATGG: sgRNA targeting a luciferase-based reporter construct, no mismatches (chemistry not given here) | 0.1224
7 | ACCAGCATATGCCGGCCTGC: sgRNA targeting a luciferase-based reporter construct, no mismatches (chemistry not given here) | 0.767
8 | ACCCTGTCCACTCATATATG: sgRNA targeting a luciferase-based reporter construct, no mismatches (chemistry not given here) | 0.4172
9 | ACCGAAAGTCGCGCCGGACG: sgRNA targeting a luciferase-based reporter construct, no mismatches (chemistry not given here) | 0.2496
10 | ACCGCCAAACGGACCGCTTA: sgRNA targeting a luciferase-based reporter construct, no mismatches (chemistry not given here) | 0.3105
11 | ACGCGCACGGGTCTCACGCC: sgRNA targeting a luciferase-based reporter construct, no mismatches (chemistry not given here) | 0.3288
12 | AGACTGGTTTCCACCCGCTC: sgRNA targeting a luciferase-based reporter construct, no mismatches (chemistry not given here) | 1.298
13 | AGGGAGTCCGCATAGGCGGC: sgRNA targeting a luciferase-based reporter construct, no mismatches (chemistry not given here) | 0.1819
14 | AGTCCTCACCGTGGGGCACC: sgRNA targeting a luciferase-based reporter construct, no mismatches (chemistry not given here) | 0.09069
15 | ATAGTTCCCTCCATGCCCTT: sgRNA targeting a luciferase-based reporter construct, no mismatches (chemistry not given here) | 0.07786
16 | ATATCGGAGTCGGCCCAACC: sgRNA targeting a luciferase-based reporter construct, no mismatches (chemistry not given here) | 0.4113
17 | ATCTGACCTCCCGGCTAATT: sgRNA targeting a luciferase-based reporter construct, no mismatches (chemistry not given here) | 0.05737
18 | ATCTGGTCAGGACGCAAAGC: sgRNA targeting a luciferase-based reporter construct, no mismatches (chemistry not given here) | 0.1406
19 | ATCTTCCCGTCGACATAGCC: sgRNA targeting a luciferase-based reporter construct, no mismatches (chemistry not given here) | 0.1609
20 | CAACCAACAGGTCCGGCCCC: sgRNA targeting a luciferase-based reporter construct, no mismatches (chemistry not given here) | 0.3833
21 | CAAGCAAGTCCGGTCGGTTG: sgRNA targeting a luciferase-based reporter construct, no mismatches (chemistry not given here) | 0.3531
22 | CAGCCTCTCCCTGCGGATGC: sgRNA targeting a luciferase-based reporter construct, no mismatches (chemistry not given here) | 0.2509

Row | Substance | Mean efficiency
23 | CAGGCATTGTGACGACGCGC: sgRNA targeting a luciferase-based reporter construct, no mismatches (chemistry not given here) | 0.1744
24 | CCACCGCGATATATGGGCGA: sgRNA targeting a luciferase-based reporter construct, no mismatches (chemistry not given here) | 0.5711
25 | CCAGTAACGTCAAAGCTAGG: sgRNA targeting a luciferase-based reporter construct, no mismatches (chemistry not given here) | 0.1068
26 | CCGCCGTGTGCTGCGAATAC: sgRNA targeting a luciferase-based reporter construct, no mismatches (chemistry not given here) | 0.1661
27 | CCGCGCCGAGGACTACCGCC: sgRNA targeting a luciferase-based reporter construct, no mismatches (chemistry not given here) | 0.4568
28 | CCGTCGAAGAACCGCGCAAT: sgRNA targeting a luciferase-based reporter construct, no mismatches (chemistry not given here) | 1.029
29 | CCTGGATGATACGCTGGCGC: sgRNA targeting a luciferase-based reporter construct, no mismatches (chemistry not given here) | 0.1807
30 | CCTTCGCGAGCACCCGGAAA: sgRNA targeting a luciferase-based reporter construct, no mismatches (chemistry not given here) | 0.3812
31 | CGAATTACTACGTAGAGCGG: sgRNA targeting a luciferase-based reporter construct, no mismatches (chemistry not given here) | 0.1117
32 | CGACGTTCCTGGCTCAATTG: sgRNA targeting a luciferase-based reporter construct, no mismatches (chemistry not given here) | 0.9067
33 | CGCCGGCACCGCGTCCCTAT: sgRNA targeting a luciferase-based reporter construct, no mismatches (chemistry not given here) | 0.2542
34 | CGTCGTTCTCGCCACCGCGC: sgRNA targeting a luciferase-based reporter construct, no mismatches (chemistry not given here) | 0.1461
35 | CTCACAGACGGCGCCCGGCG: sgRNA targeting a luciferase-based reporter construct, no mismatches (chemistry not given here) | 0.4741
36 | CTGCCGTTCTTCAGAAATAT: sgRNA targeting a luciferase-based reporter construct, no mismatches (chemistry not given here) | 0.3101
37 | CTGGGCCGGCGTGTCCGTTC: sgRNA targeting a luciferase-based reporter construct, no mismatches (chemistry not given here) | 0.4328
38 | CTTCCGACCCTTCGTTAGCC: sgRNA targeting a luciferase-based reporter construct, no mismatches (chemistry not given here) | 0.1815
39 | GAACTCCGACTAGATTATAT: sgRNA targeting a luciferase-based reporter construct, no mismatches (chemistry not given here) | 0.4012
40 | GACAAAGGATACTCAAATCC: sgRNA targeting a luciferase-based reporter construct, no mismatches (chemistry not given here) | 0.05169
41 | GACCGGATTCGCTACAACCC: sgRNA targeting a luciferase-based reporter construct, no mismatches (chemistry not given here) | 0.6963
42 | GCACCCTGCACGAATTATTT: sgRNA targeting a luciferase-based reporter construct, no mismatches (chemistry not given here) | 0.2041
43 | GCATGCCCACCTTATCGGCG: sgRNA targeting a luciferase-based reporter construct, no mismatches (chemistry not given here) | 0.1169
